Test results taken from patent US4916214A, “Cationic complexes of technetium-99m” (Amersham International plc., priority 1987, dated 1990).
Where two headings read alike, the source gives them in different places.

Legend:
[1] = Animal biodistribution of 99mTc complexes in guinea pigs; assay type: in vivo, guinea pig;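 further: Heart, liver and kidney plus urine values are percent of the injected material, background-corrected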
Method: (§1) Percentage biodistribution of injected material was calculated (after correction for background) for all organs using the formula: [formula]
(§2) Since only samples of muscle and blood were taken, the percentage in these tissues was calculated assuming blood and muscle to represent 5.8 and 43% of total animal weight respectively using the formula: [formula]
Since only samples of muscle and blood were taken, the percentage in these tissues was calculated assuming blood and muscle to represent 5.8 and 43% of total animal weight respectively using the formula: [formula] where CF= 0.058 for blood

[2] = rat, in vivo
Method: (§3) In vivo biodistribution: 0.1 ml Tc^99m prep was injected i.v. into a laterial tail vein of 6 anaesthetised rats.
(§4) At 2 minutes and 60 minutes post-injection, 3 rats were sacrificed by decapitation, bled from the neck and dissected. The following organs were removed at dissection: kidney; bladder(+ urine), lung, liver, spleen, stomach, small intestine, large intestine, brain (weighed), heart (weighed), thyroid and samples of blood (weighed) and muscle (weighed), the residual carcass and the tail (injection site). Subsequently samples were counted in an automatic twin crystal gamma counter.
as §1, §2

[3] = Animal biodistribution of 99mTc complexes in rats (i.v. injection, organ counting); conditions: Table VII, nitrosyl complex [Tc(NO)Cl2 L2 ]^- of the ligand, 60 min p.i.
Method: as §3, §4, §1, §2

[4] = guinea pig, 60 min p.i. in vivo, mean
[5] = Table VIII, [TcL3 ]^+ complex of the ligand, guinea pigs, 2 min p.i.
[6] = Table VIII, [TcL3 ]^+ complex of the ligand, guinea pigs, 60 min p.i.

SMILES	Blood [1, 4]	Heart [1, 4]	Heart/Blood Counts/Gram ratio [1, 4]	Heart/Liver Counts/Gram ratio [1, 4]	Heart/Lung Counts/Gram ratio [1, 4]	Heart/Muscle Counts/Gram ratio [1, 4]	Kidney + Urine [1, 4]	Liver [1, 4]	Liver + GI [1, 4]	Lung [1, 4]	Muscle [1, 4]	Blood ([2]; 60 min)	Heart ([2]; 60 min)	Heart/Blood Counts/Gram ratio ([2]; 60 min)	Heart/Liver Counts/Gram ratio ([2]; 60 min)	Heart/Lung Counts/Gram ratio ([2]; 60 min)	Heart/Muscle Counts/Gram ratio ([2]; 60 min)	Kidney + Urine ([2]; 60 min)	Liver ([2]; 60 min)	Liver + GI ([2]; 60 min)	further results
COC(CC(OC)P(C)C)P(C)C.COC(CC(OC)P(C)C)P(C)C.O=[N][99Tc+][Cl].[Cl-] (stereo not drawn) [Example 17]	1.31 % injected dose/organ	0.70 % injected dose/organ	13.9	4.21	1.3	6.81	17.6 % injected dose/organ	2.76 % injected dose/organ	57.1 % injected dose/organ	0.55 % injected dose/organ	1.60 % injected dose/organ	0.44 % injected dose/organ	1.23 % injected dose/organ	39.1	2.47	2.7	5.51	15.8 % injected dose/organ	6.03 % injected dose/organ	47.9 % injected dose/organ	Lung ([2]; 60 min): 0.72 % injected dose/organ; Muscle ([2]; 60 min): 22.9 % injected dose/organ
COC(CC(OC)P(C)C)P(C)C.COC(CC(OC)P(C)C)P(C)C.COC(CC(OC)P(C)C)P(C)C.[99Tc+] (stereo not drawn) [Example 16]	2.03 % injected dose/organ	0.57 % injected dose/organ	7.08	0.94	0.4	3.98	23.3 % injected dose/organ	10.0 % injected dose/organ	48.6 % injected dose/organ	1.01 % injected dose/organ	20.7 % injected dose/organ	0.64 % injected dose/organ	0.99 % injected dose/organ	22.1	1.64	0.7	6.4	25.7 % injected dose/organ	8.81 % injected dose/organ	43.3 % injected dose/organ	Blood ([2]; 2 min): 7.15 % injected dose/organ; Heart ([2]; 2 min): 1.30 % injected dose/organ; Heart/Blood Counts/Gram ratio ([2]; 2 min): 2.78; Heart/Liver Counts/Gram ratio ([2]; 2 min): 1.14; Heart/Lung Counts/Gram ratio ([2]; 2 min): 0.5; Heart/Muscle Counts/Gram ratio ([2]; 2 min): 5.01; Kidney + Urine ([2]; 2 min): 9.33 % injected dose/organ; Liver ([2]; 2 min): 17.4 % injected dose/organ; Liver + GI ([2]; 2 min): 31.5 % injected dose/organ; Lung ([2]; 2 min): 3.57 % injected dose/organ; Muscle ([2]; 2 min): 29.1 % injected dose/organ; Lung ([2]; 60 min): 1.79 % injected dose/organ; Muscle ([2]; 60 min): 17.1 % injected dose/organ
CP(C)CCP(C)C [dmpe, di(dimethylphosphino) ethane, reference compound]	–	–	–	–	–	–	–	–	–	–	–	–	–	–	–	–	–	–	–	–	Heart [1, 5]: 0.53 % injected dose; Heart/Blood Counts/Gram ratio [1, 5]: 0.42; Heart/Liver Counts/Gram ratio [1, 5]: 0.30; Heart/Muscle Counts/Gram ratio [1, 5]: 6.11; Liver [1, 5]: 38.0 % injected dose; Heart [1, 6]: 0.38 % injected dose; Heart/Blood Counts/Gram ratio [1, 6]: 3.27; Heart/Liver Counts/Gram ratio [1, 6]: 0.13; Heart/Muscle Counts/Gram ratio [1, 6]: 4.12; Liver [1, 6]: 36.8 % injected dose; Heart/Liver Counts/Gram ratio [3]: 1.52
